The record followed here is patent EP3156406A1, “CRYSTALLINE FORMS OF RIBOCICLIB FREE BASE” (ratiopharm GmbH, priority 2015, dated 2017).

In brackets after ≈: the same amount, converted by molar mass.

By Solubility is commonly meant the dissolved amount per volume that the medium holds. The solubility is the concentration that dissolves in the medium under given conditions. A higher solubility goes with much dissolved substance.

Holding throughout (format): physicochemical
Data set [1] is described as follows: Dynamic vapor sorption - stability of solid form. The settings on record: 25°C, humidity cycles 0-95% RH. The protocol: Vapour sorption experiments were performed in the instrument SPSx-1µ (Projekt Messtechnik, Ulm, Germany) at temperature of 25°C and the humidity cycles as shown below. Humidity cycle conditions: [table]
A short description of data set [2]: Long term stability of solid form at 40°C/75%r.h.
A short description of data set [3]: Solubility in aqueous solvents. The settings on record: for Solubility: 37°C. The protocol:
Approx. 340 mg (exactly weighed) test substance was weighed into a glass vial, followed by addition of 2.5 ml solvent. A stirring bar was added, the vial was fixed in a block heater at 37°C and the suspension was stirred with approx. 250 rpm. After 15 min and 1 h, samples were withdrawn, filtered through a 0.2 µm disposable filter, 50 µl of the clear filtrate were diluted with 950 µl DMSO and 2 µl thereof were analyzed by HPLC/UV.

On to `CN(C)C(=O)c1cc2cnc(Nc3ccc(N4CCNCC4)cn3)nc2n1C1CCCC1` [Form 4, 7-cyclopentyl-N,N-dimethyl-2-((5-(piperazin-1-yl)pyridin-2-yl)amino)-7H-pyrrolo[2,3-d]pyrimidine-6-carboxamide, reference compound], for which the “Stability of solid form (in DVS)” value in data set [1] was “Unstable at RT and ambient conditions”.
Turning to `CN(C)C(=O)c1cc2cnc(Nc3ccc(N4CCNCC4)cn3)nc2n1C1CCCC1` [Form 8, 7-cyclopentyl-N,N-dimethyl-2-((5-(piperazin-1-yl)pyridin-2-yl)amino)-7H-pyrrolo[2,3-d]pyrimidine-6-carboxamide], the “Long term stability at 40°C/75%r.h. (4 weeks)” value in data set [2] is “stable”. Further, the “Long term stability at 40°C/75%r.h. (12 weeks)” value in data set [2] was “stable”. Moreover, the Solubility in data set [3] (0.01 N HCl ∼pH2.2, 15 min, listed as RBC free base form 8) was 4000 µg/mL (≈ 9.2 mM); in data set [3] (0.01 N HCl ∼pH2.2, 1 h, listed as RBC free base form 8), 1000 µg/mL (≈ 2.3 mM); in data set [3] (50mM KH2PO4 pH6.5 + 2%TPGS, 15 min, listed as RBC free base form 8), 3900 µg/mL; in data set [3] (50mM KH2PO4 pH6.5 + 2%TPGS, 1 h, listed as RBC free base form 8) it was 900 µg/mL.
In the case of `CN(C)C(=O)c1cc2cnc(Nc3ccc(N4CCNCC4)cn3)nc2n1C1CCCC1` [Form 1, 7-cyclopentyl-N,N-dimethyl-2-((5-(piperazin-1-yl)pyridin-2-yl)amino)-7H-pyrrolo[2,3-d]pyrimidine-6-carboxamide], the “Long term stability at 40°C/75%r.h. (4 weeks)” value in data set [2] is recorded as “stable”. Further, the “Long term stability at 40°C/75%r.h. (12 weeks)” value in data set [2] is on record as “stable”. For the same compound, the Solubility in data set [3] (0.01 N HCl ∼pH2.2, 15 min, listed as RBC free base form 1) came to 3800 µg/mL (≈ 8.74 mM); in data set [3] (0.01 N HCl ∼pH2.2, 1 h, listed as RBC free base form 1), 3400 µg/mL (≈ 7.82 mM); in data set [3] (20mM NaAc pH4.5, 1 h, listed as RBC free base form 1), 14200 µg/mL (≈ 32.7 mM); in data set [3] (50mM KH2PO4 pH6.5 + 2%TPGS, 15 min, listed as RBC free base form 1), 3600 µg/mL; in data set [3] (50mM KH2PO4 pH6.5 + 2%TPGS, 1 h, listed as RBC free base form 1), 1500 µg/mL; in data set [3] (50mM KH2PO4 pH6.8, 15 min, listed as RBC free base form 1), 1500 µg/mL (≈ 3.45 mM). The Solubility in data set [3] (50mM KH2PO4 pH6.8, 1 h, listed as RBC free base form 1) was 1600 µg/mL (≈ 3.68 mM). Further, in data set [3] (20 mM sodium acetate buffer, 37 °C, pH 4.5, aqueous buffer, thermodynamic from solid, 20mM NaAc pH4.5, 15 min), the solubility at 15 min worked out at 14200 µg/mL (≈ 32.7 mM). The “Stability of solid form (in DVS)” value in data set [1] is “stable”.
For the compound `CN(C)C(=O)c1cc2cnc(Nc3ccc(N4CCNCC4)cn3)nc2n1C1CCCC1` [Form 7, 7-cyclopentyl-N,N-dimethyl-2-((5-(piperazin-1-yl)pyridin-2-yl)amino)-7H-pyrrolo[2,3-d]pyrimidine-6-carboxamide], the “Long term stability at 40°C/75%r.h. (4 weeks)” value in data set [2] is listed as “stable”. The “Long term stability at 40°C/75%r.h. (12 weeks)” value in data set [2] was “stable”. For the same compound, the Solubility in data set [3] (0.01 N HCl ∼pH2.2, 15 min, listed as RBC free base form 7) was 3100 µg/mL (≈ 7.13 mM); in data set [3] (0.01 N HCl ∼pH2.2, 1 h, listed as RBC free base form 7), 3000 µg/mL (≈ 6.9 mM); in data set [3] (20mM NaAc pH4.5, 15 min, listed as RBC free base form 7), 11300 µg/mL (≈ 26 mM); in data set [3] (50mM KH2PO4 pH6.5 + 2%TPGS, 15 min, listed as RBC free base form 7), 800 µg/mL; in data set [3] (50mM KH2PO4 pH6.5 + 2%TPGS, 1 h, listed as RBC free base form 7) it was 800 µg/mL; in data set [3] (50mM KH2PO4 pH6.8, 15 min, listed as RBC free base form 7), 500 µg/mL (≈ 1.15 mM). The compound further registered a Solubility in data set [3] (50mM KH2PO4 pH6.8, 1 h, listed as RBC free base form 7) of 1100 µg/mL (≈ 2.53 mM). This compound also showed a solubility at 1 h in data set [3] (20 mM sodium acetate buffer, 37 °C, pH 4.5, aqueous buffer, thermodynamic from solid, 20mM NaAc pH4.5, 1 h) of 11500 µg/mL (≈ 26.5 mM). Moreover, the “Stability of solid form (in DVS)” value in data set [1] is on record as “stable”.
Take `CN(C)C(=O)c1cc2cnc(Nc3ccc(N4CCNCC4)cn3)nc2n1C1CCCC1` [Form 6, 7-cyclopentyl-N,N-dimethyl-2-((5-(piperazin-1-yl)pyridin-2-yl)amino)-7H-pyrrolo[2,3-d]pyrimidine-6-carboxamide]: the “Long term stability at 40°C/75%r.h. (4 weeks)” value in data set [2] was “stable”. In addition, the “Long term stability at 40°C/75%r.h. (12 weeks)” value in data set [2] is “stable”. For the same compound, the Solubility in data set [3] (0.01 N HCl ∼pH2.2, 15 min, listed as RBC free base form 6) came out at 400 µg/mL (≈ 0.92 mM); in data set [3] (0.01 N HCl ∼pH2.2, 1 h, listed as RBC free base form 6) it was 200 µg/mL (≈ 0.46 mM); in data set [3] (20mM NaAc pH4.5, 15 min, listed as RBC free base form 6), 12200 µg/mL (≈ 28.1 mM); in data set [3] (20mM NaAc pH4.5, 1 h, listed as RBC free base form 6), 9700 µg/mL (≈ 22.3 mM); in data set [3] (50mM KH2PO4 pH6.5 + 2%TPGS, 15 min, listed as RBC free base form 6), 2800 µg/mL; in data set [3] (50mM KH2PO4 pH6.5 + 2%TPGS, 1 h, listed as RBC free base form 6), 2400 µg/mL. In addition, the Solubility in data set [3] (50mM KH2PO4 pH6.8, 15 min, listed as RBC free base form 6) was 1200 µg/mL (≈ 2.76 mM); in data set [3] (50mM KH2PO4 pH6.8, 1 h, listed as RBC free base form 6) it was 500 µg/mL (≈ 1.15 mM). Also, in data set [1], the “Stability of solid form (in DVS)” value is “stable”.
